Laboratory results taken from US5834436A, “Membrane-permeant second messengers” (priority 1995, dated 1998).
Each block holds one molecule with its values, some of them ahead of it.

Key:
[1] = biological target: cAMP-dependent kinase type I (FICRhR) (Bos taurus, UniProt P00514); assay: biochemical
Text: When PKA is doubly labeled with fluorescein on its catalytic subunits and rhodamine on its regulatory subunits to produce FICRhR, fluorescence energy transfer from the fluorescein to rhodamine occurs in the holoenzyme complex but is disrupted upon activation and dissociation of the subunits. The change in the ratio of fluorescein to rhodamine emissions parallels the increase in kinase activity and can be nondestructively imaged in single cells. REF-52 fibroblasts were microinjected with FICRhR and emission ratio images recorded at room temperature as previously described (27).

[2] = tested on: T84 cells; assay: cells; assay type: cell-based; conditions: for EC50: Homo sapiens, T84, 0.2 h, ISC 12 min after addition, read-out: EC50 for Cl- secretion
Text: A convenient test system is the intestinal cell line T84, in which chloride secretion can be continuously monitored by mounting confluent monolayers of cells in Ussing chambers (42).

[3] = tested on: angelfish (Pterophyllum scalare) melanophores; assay: Pigment dispersion in angelfish melanophores on isolated scales (FIG. 3); assay type: cell-based; conditions: for reversibility of dispersion (in words): removal of extracellular compound and epinephrine
Procedure: Melanophores permit a visual single-cell assay for the ability of cAMP analogs to enter cells and mimic cAMP actions. The melanophores were isolated on angelfish scales and the epidermis was stripped off. […] Dispersion was just detectable at 1 μM and half-maximal near 10 μM (FIG. 3A). […] The preceding examples are summarized in (64).

[4] = biological target: cAMP-dependent protein kinase (PKA) (Bos taurus, UniProt P00514); assay: cell-based; assay type: cell-based
[5] = tested on: 1321N1 astrocytoma cells; assay: Cytosolic free Ca2+ imaging (fura-2) in 1321N1 astrocytoma cells (FIGS. 7-9); assay type: cell-based
Procedure: Biological tests on 1321N1 astrocytoma cells were performed similarly to the tests on REF-52 cells (71). The concentration of Cytosolic free Ca^2+ (ordinate, in units of […]) in fura-2-loaded 1321N1 astrocytoma cells is shown as a function of time (abscissa, in units of seconds). At the dotted vertical line labeled 1, 20 μM inositol-1,4,5-triphosphate propionyloxymethyl ester (5a, R=Et, R'=H) was added. […] Subsequently the cells could respond to carbachol (200 μM, delivered at the dotted vertical line labeled 2), a drug that stimulates the endogenous generation of inositol-1,4,5-triphosphate. However, the response to carbachol is depressed by the prior treatment with the inositol-1,4,5-triphosphate propionyloxymethyl ester. Likewise the Ca^2+ response to thapsigargin (100 nM, delivered at the dotted vertical line labeled 3), another drug that releases stored Ca^2+, is depressed.
A test similar to the one shown in FIG. 7 was conducted except that the medium lacked extracellular Ca^2+ and a dose of 60 μM inositol-1,4,5-triphosphate propionyloxymethyl ester was added at the dotted vertical line labeled 1. […] Because no extracellular Ca^2+ was present, this response must have represented release from intracellular Ca^2+ stores. […] The much greater degree of inhibition of the carbachol response compared to the previous example (FIG. 7) is due to the higher dose of the inositol-1,4,5-triphosphate propionyloxymethyl ester and the absence of extracellular Ca^2+, which reduces refilling of Ca^2+ stores.
In a further example, the same test as set forth above was conducted with astrocytoma cells, except that 2 μM inositol-1,4,5-triphosphate butyryloxymethyl ester (5a, R=Pr, R'=H) was used instead of the propionyloxymethyl ester.

[6] = tested on: REF-52 fibroblasts; assay: Cytosolic free Ca2+ imaging (fura-2) in single REF-52 fibroblasts (FIG. 6); assay type: cell-based
Procedure: The best-established biological effect of IP3 is to release Ca^2+ from internal stores (26), so IP3 /PM (5a, R=Et, R'=H) was tested by imaging cytosolic free Ca^2+ levels in single REF-52 fibroblasts using standard methodology (58). Cells were loaded with the Ca^2+ -indicator fura-2 and viewed by fluorescence excitation ratioing. IP3 /PM (40 μM) was applied extracellularly while monitoring cytosolic Ca^2+ concentrations.

[7] = 20 μM, extracellular Ca2+ present, FIG. 7
[8] = 60 μM, no extracellular Ca2+, FIG. 8

Sequence of cAMP-dependent kinase type I (FICRhR) (P00514 whole entry): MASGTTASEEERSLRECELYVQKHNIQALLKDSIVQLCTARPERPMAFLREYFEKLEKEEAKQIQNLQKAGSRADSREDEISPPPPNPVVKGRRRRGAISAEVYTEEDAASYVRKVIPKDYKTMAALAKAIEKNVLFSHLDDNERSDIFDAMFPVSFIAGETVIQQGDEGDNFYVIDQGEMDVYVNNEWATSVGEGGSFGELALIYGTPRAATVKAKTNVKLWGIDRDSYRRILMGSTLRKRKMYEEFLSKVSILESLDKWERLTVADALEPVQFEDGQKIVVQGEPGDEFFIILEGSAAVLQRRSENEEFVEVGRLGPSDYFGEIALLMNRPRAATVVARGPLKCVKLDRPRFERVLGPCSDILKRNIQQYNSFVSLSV

activation at 10 µM ([1]; 10 μM (printed)): 16%
potency relative to cAMP ([1]; in vitro, FICRhR): roughly 1/100
activation at 10 µM ([1]; second Bt2 cAMP column, 10 μM printed): 61%
EC50 [2]: 400 µM
concentration required for PKA activation ([4]; extracellular application): 1 mM
Molecule: CCCC(=O)Nc1ncnc2c1ncn2[C@@H]1O[C@@H]2COP(=O)(O)O[C@H]2[C@H]1OC(=O)CCC [Bt2 cAMP, N^6,O^2 '-dibutyryl cAMP, reference compound]
pigment dispersion (in words) ([3]; 1 mM): unable to cause any detectable dispersion
delay and time course of PKA activation relative to Bt2 cAMP/AM (in words) ([4]; 1 mM, FIG. 1 Graph B): Much the same delay and overall time course

Molecule: CCCC(=O)Nc1ncnc2c1ncn2[C@@H]1O[C@@H]2COP(=O)(OCOC(C)=O)O[C@H]2[C@H]1OC(=O)CCC (some centres unmarked) [Bt2 cAMP/AM, N^6,O^2 '-Dibutyryl Adenosine 3',5'-cyclic Monophosphate Acetoxymethyl Ester]
separation of the FICRhR subunits in vitro (in words) ([1]; 1 μM): no separation of the subunits
activation at 10 µM ([1]; 10 μM (printed)): 0%
time to maximum ISC ([2]; 3 μM, serosal bathing solution): 20 min
increase in potency by acetoxymethyl group (vs Bt2 cAMP) ([2]; Cl- secretion): 200 fold
EC50 [2]: 2 µM
kinetics of activation, ester vs Bt2 cAMP (in words) ([2]; T84 cells): essentially indistinguishable kinetics of activation
ISC response at other concentrations (in words) ([2]; relative to 3 μM): Higher concentrations of the derivative caused faster but not significantly greater responses, whereas lower concentrations reached lower maximum ISC values
pigment dispersion (in words) ([3]; 100 μM, extracellular): essentially complete dispersal
reversibility of dispersion (in words) ([3]; 100 μM): easily reversed
onset of dispersion relative to 100 μM (in words) ([3]; 1 mM): slightly faster onset of action
reversibility of dispersion (in words) ([3]; 1 mM): could not be readily reversed
minimal effective concentration ([3]; Pterophyllum scalare, Melanophore, read-out: concentration at which dispersion was just detectable): 1 µM
EC50 ([3]; Pterophyllum scalare, Melanophore, read-out: concentration for half-maximal dispersion): ~10 µM
increase in potency by AM ester group (vs Bt2 cAMP) ([3]; melanophore dispersion): more than 1000
time to maximal change in fluorescence ratio ([4]; 10 μM (highest dose), added extracellularly, room temperature): ≤ 15 min
activation at 1 µM ([4]; REF52, 1 μM (intermediate dose), read-out: plateau of fluorescence ratio change (% of the maximal change)): > 50%
onset of separation of regulatory and catalytic subunit of FICRhR after addition ([4]; extracellular addition): roughly 2 min

EC50 [2]: 1500 µM
Molecule: Nc1ncnc2c1nc(Br)n2[C@@H]1O[C@@H]2COP(=O)(O)O[C@H]2[C@H]1O [Compound 8-Br-cAMP, 8-bromo-cAMP, reference compound]

EC50 [2]: 100 µM
Molecule: Nc1ncnc2c1nc(Sc1ccc(Cl)cc1)n2[C@@H]1O[C@@H]2COP(=O)(O)O[C@H]2[C@H]1O [Compound 8-pCPT-cAMP, 8-para-chlorophenylthio (cCPT) cAMP, reference compound]

Molecule: CCC(=O)OCOP(=O)(OCOC(=O)CC)O[C@@H]1[C@H](O)[C@H](O)[C@@H](OP(=O)(OCOC(=O)CC)OCOC(=O)CC)[C@H](OP(=O)(OCOC(=O)CC)OCOC(=O)CC)[C@H]1O [IP3 /PM, D-myo-inositol-1,4,5-triphosphate propionyloxymethyl ester]
Ca2+ response to thapsigargin (100 nM) after treatment (in words) [5, 7]: depressed
delay of cytosolic Ca2+ elevation [5, 7]: about 100 second
elevation of cytosolic Ca2+ (in words) [5, 7]: sizable elevation of cytosolic Ca^2+
response to carbachol (200 μM) after treatment (in words) [5, 7]: depressed
delay of cytosolic Ca2+ elevation [5, 8]: ~50 s
elevation of cytosolic Ca2+ (in words) [5, 8]: sizable elevation of cytosolic Ca^2+
response to carbachol (200 μM) after treatment (in words) [5, 8]: greatly depressed
Ca2+ release from internal stores (in words) ([5]; summary, intact REF-52 fibroblasts and astrocytoma cells): released Ca^2+ from internal stores
cytosolic Ca2+ concentration after addition (in words) ([6]; 40 μM, extracellular): increased rapidly
effect of subsequent vasopressin (in words) ([6]; after 40 μM IP3/PM): much less effect than normal

Molecule: D-myo-inositol-1,4,5-triphosphate butyryloxymethyl ester [IP3 /BM]
potency relative to propionyloxymethyl ester (in words) ([5]; 2 μM, FIG. 9): somewhat more potent
rate of effects relative to propionyloxymethyl ester (in words) ([5]; 2 μM, FIG. 9): slower to appear and decay
